Tested on: 817829-284-R-J1-PDC complex spheroid viability
Assay: Anticancer human tumor 817829-284-R-J1-PDC patient-derived colon adenocarcinoma cell line growth inhibition [POLQ]
Conditions: for IC50: curve of first compound; for viability, T/C: stronger effect = lower value
Procedure, shortened: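 Three-cell-type spheroids modelling solid tumor plus stroma served as the readout system; POL inhibitors were tested individually and in combination, concentration ranges set by clinical Cmax where known.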

[1] = second compound 0.0316 µM, first compound 0.0316 µM
[2] = second compound 0.0316 µM, first compound 0.1 µM
[3] = second compound 0.0316 µM, first compound 0.316 µM
[4] = second compound 0.0316 µM, first compound 1 µM
[5] = second compound 0.0316 µM, first compound 3.16 µM
[6] = second compound 0.0316 µM, first compound 10 µM
[7] = second compound 0.1 µM, first compound 0.0316 µM
[8] = second compound 0.1 µM, first compound 0.1 µM
[9] = second compound 0.1 µM, first compound 0.316 µM
[10] = second compound 0.1 µM, first compound 1 µM
[11] = second compound 0.1 µM, first compound 3.16 µM
[12] = second compound 0.1 µM, first compound 10 µM
[13] = second compound 0.316 µM, first compound 0.0316 µM
[14] = second compound 0.316 µM, first compound 0.1 µM
[15] = second compound 0.316 µM, first compound 0.316 µM
[16] = second compound 0.316 µM, first compound 1 µM
[17] = second compound 0.316 µM, first compound 3.16 µM
[18] = second compound 0.316 µM, first compound 10 µM
[19] = second compound 1 µM, first compound 0.0316 µM
[20] = second compound 1 µM, first compound 0.1 µM
[21] = second compound 1 µM, first compound 0.316 µM
[22] = second compound 1 µM, first compound 1 µM
[23] = second compound 1 µM, first compound 3.16 µM
[24] = second compound 1 µM, first compound 10 µM
[25] = second compound 3.16 µM, first compound 0.0316 µM
[26] = second compound 3.16 µM, first compound 0.1 µM
[27] = second compound 3.16 µM, first compound 0.316 µM
[28] = second compound 3.16 µM, first compound 1 µM
[29] = second compound 3.16 µM, first compound 3.16 µM
[30] = second compound 3.16 µM, first compound 10 µM
[31] = second compound 10 µM, first compound 0.0316 µM
[32] = second compound 10 µM, first compound 0.1 µM
[33] = second compound 10 µM, first compound 0.316 µM
[34] = second compound 10 µM, first compound 1 µM
[35] = second compound 10 µM, first compound 3.16 µM
[36] = second compound 10 µM, first compound 10 µM
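Note: spheroids exposed to compounds for 7 days.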
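Throughout, for viability, T/C: 100% = DMSO vehicle-treated spheroids.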

C=CC(=O)N1CCN(c2nc(=O)n(-c3c(C)ccnc3C(C)C)c3nc(-c4c(O)cccc4F)c(F)cc23)C(C)C1 (stereo not given) + Cc1cccc(N(C)C(=O)C2C(O)CCN2c2nc(C)cc(C(F)(F)F)c2C#N)c1
IC50 (second compound 0.0316 µM): 9.4 µM | IC50 (second compound 0.1 µM): 9.47 µM | IC50 (second compound 0.316 µM): 9.09 µM | IC50 (second compound 1 µM): 7.8 µM | IC50 (second compound 3.16 µM): 7.29 µM | IC50 (second compound 10 µM): > 10 µM | viability, T/C [1]: 94.4% | viability, T/C [2]: 140% | viability, T/C [3]: 112% | viability, T/C [4]: 105% | viability, T/C [5]: 82.7% | viability, T/C [6]: 48% | viability, T/C [7]: 91.1% | viability, T/C [8]: 109% | viability, T/C [9]: 104% | viability, T/C [10]: 110% | viability, T/C [11]: 86.3% | viability, T/C [12]: 48.2% | viability, T/C [13]: 92.2% | viability, T/C [14]: 109% | viability, T/C [15]: 108% | viability, T/C [16]: 83.5% | viability, T/C [17]: 83.1% | viability, T/C [18]: 46.9% | viability, T/C [19]: 92.9% | viability, T/C [20]: 91.2% | viability, T/C [21]: 112% | viability, T/C [22]: 99% | viability, T/C [23]: 86.4% | viability, T/C [24]: 39.9% | viability, T/C [25]: 113% | viability, T/C [26]: 125% | viability, T/C [27]: 87.8% | viability, T/C [28]: 89.3% | viability, T/C [29]: 76.3% | viability, T/C [30]: 39.9% | viability, T/C [31]: 89.4% | viability, T/C [32]: 104% | viability, T/C [33]: 84% | viability, T/C [34]: 113% | viability, T/C [35]: 66.9% | viability, T/C [36]: 54.9%

CC(C)n1c(=O)n(C)c2cnc3cc(F)c(-c4ccc(OCCCN5CCCCC5)nc4)cc3c21 + Cc1cccc(N(C)C(=O)C2C(O)CCN2c2nc(C)cc(C(F)(F)F)c2C#N)c1
IC50 (second compound 0.0316 µM): 6.74 µM | IC50 (second compound 0.1 µM): 7.64 µM | IC50 (second compound 0.316 µM): 8.32 µM | IC50 (second compound 1 µM): 5.97 µM | IC50 (second compound 3.16 µM): 8.23 µM | IC50 (second compound 10 µM): 6.08 µM | viability, T/C [1]: 91.7% | viability, T/C [2]: 77.1% | viability, T/C [3]: 96.6% | viability, T/C [4]: 86.3% | viability, T/C [5]: 84.3% | viability, T/C [6]: 32.1% | viability, T/C [7]: 73.6% | viability, T/C [8]: 107% | viability, T/C [9]: 91.6% | viability, T/C [10]: 76.8% | viability, T/C [11]: 106% | viability, T/C [12]: 37.5% | viability, T/C [13]: 87.3% | viability, T/C [14]: 83.3% | viability, T/C [15]: 94.4% | viability, T/C [16]: 87.6% | viability, T/C [17]: 83% | viability, T/C [18]: 43.8% | viability, T/C [19]: 99.7% | viability, T/C [20]: 86.5% | viability, T/C [21]: 99.1% | viability, T/C [22]: 72.6% | viability, T/C [23]: 73.7% | viability, T/C [24]: 34.4% | viability, T/C [25]: 93.8% | viability, T/C [26]: 70.6% | viability, T/C [27]: 78.1% | viability, T/C [28]: 100% | viability, T/C [29]: 70.5% | viability, T/C [30]: 45.8% | viability, T/C [31]: 85.7% | viability, T/C [32]: 81.6% | viability, T/C [33]: 74% | viability, T/C [34]: 67.8% | viability, T/C [35]: 79% | viability, T/C [36]: 28.9%

CCc1cc2c(N3CCc4c(cc(Cn5ccnc5)cc4-c4cn(C)nc4C(F)(F)F)C3=O)ccnc2c(OC)n1 + Cc1cccc(N(C)C(=O)C2C(O)CCN2c2nc(C)cc(C(F)(F)F)c2C#N)c1
IC50 (second compound 0.0316 µM): 3.28 µM | IC50 (second compound 0.1 µM): 4.18 µM | IC50 (second compound 0.316 µM): 4.63 µM | IC50 (second compound 1 µM): 2.77 µM | IC50 (second compound 3.16 µM): 2.43 µM | IC50 (second compound 10 µM): 1.57 µM | viability, T/C [1]: 84% | viability, T/C [2]: 73.8% | viability, T/C [3]: 67.4% | viability, T/C [4]: 64.2% | viability, T/C [5]: 49.7% | viability, T/C [6]: 38.4% | viability, T/C [7]: 87.5% | viability, T/C [8]: 96% | viability, T/C [9]: 72.7% | viability, T/C [10]: 77.2% | viability, T/C [11]: 54.7% | viability, T/C [12]: 31.2% | viability, T/C [13]: 95.5% | viability, T/C [14]: 87.9% | viability, T/C [15]: 76.9% | viability, T/C [16]: 73.8% | viability, T/C [17]: 51.3% | viability, T/C [18]: 41.1% | viability, T/C [19]: 90.6% | viability, T/C [20]: 82.2% | viability, T/C [21]: 76.8% | viability, T/C [22]: 65.4% | viability, T/C [23]: 47.1% | viability, T/C [24]: 29.3% | viability, T/C [25]: 84.9% | viability, T/C [26]: 94.9% | viability, T/C [27]: 86.8% | viability, T/C [28]: 61.1% | viability, T/C [29]: 50.1% | viability, T/C [30]: 32.8% | viability, T/C [31]: 92.9% | viability, T/C [32]: 71.8% | viability, T/C [33]: 69.1% | viability, T/C [34]: 56.8% | viability, T/C [35]: 42.1% | viability, T/C [36]: 30.5%

COc1cc2cc(C(=O)CCC(=O)O)sc2cc1OC + Cc1cccc(N(C)C(=O)C2C(O)CCN2c2nc(C)cc(C(F)(F)F)c2C#N)c1
IC50 (second compound 0.0316 µM): > 10 µM | IC50 (second compound 0.1 µM): > 10 µM | IC50 (second compound 0.316 µM): > 10 µM | IC50 (second compound 1 µM): > 10 µM | IC50 (second compound 3.16 µM): > 10 µM | IC50 (second compound 10 µM): > 10 µM | viability, T/C [1]: 100% | viability, T/C [2]: 93.1% | viability, T/C [3]: 89% | viability, T/C [4]: 88.5% | viability, T/C [5]: 114% | viability, T/C [6]: 96.2% | viability, T/C [7]: 113% | viability, T/C [8]: 97% | viability, T/C [9]: 99.5% | viability, T/C [10]: 105% | viability, T/C [11]: 98.7% | viability, T/C [12]: 102% | viability, T/C [13]: 101% | viability, T/C [14]: 90.5% | viability, T/C [15]: 99% | viability, T/C [16]: 108% | viability, T/C [17]: 107% | viability, T/C [18]: 108% | viability, T/C [19]: 102% | viability, T/C [20]: 88.2% | viability, T/C [21]: 96.7% | viability, T/C [22]: 116% | viability, T/C [23]: 105% | viability, T/C [24]: 104% | viability, T/C [25]: 91.1% | viability, T/C [26]: 111% | viability, T/C [27]: 117% | viability, T/C [28]: 93.8% | viability, T/C [29]: 100% | viability, T/C [30]: 96.9% | viability, T/C [31]: 87.7% | viability, T/C [32]: 86.8% | viability, T/C [33]: 112% | viability, T/C [34]: 89.6% | viability, T/C [35]: 109% | viability, T/C [36]: 89.6%

COc1ccc([C@@H](O)c2cc(-c3ncnc4cc(N5CCOCC5)ccc34)c(F)cc2Cl)nn1 + Cc1cccc(N(C)C(=O)C2C(O)CCN2c2nc(C)cc(C(F)(F)F)c2C#N)c1
IC50 (second compound 0.0316 µM): 0.715 µM | IC50 (second compound 0.1 µM): 0.719 µM | IC50 (second compound 0.316 µM): 0.932 µM | IC50 (second compound 1 µM): 1.22 µM | IC50 (second compound 3.16 µM): 0.474 µM | IC50 (second compound 10 µM): 0.751 µM | viability, T/C [1]: 112% | viability, T/C [2]: 112% | viability, T/C [3]: 72% | viability, T/C [4]: 42.3% | viability, T/C [5]: 22.3% | viability, T/C [6]: 17.9% | viability, T/C [7]: 103% | viability, T/C [8]: 80.3% | viability, T/C [9]: 66.9% | viability, T/C [10]: 40.8% | viability, T/C [11]: 32.7% | viability, T/C [12]: 19.9% | viability, T/C [13]: 107% | viability, T/C [14]: 74.6% | viability, T/C [15]: 102% | viability, T/C [16]: 47.1% | viability, T/C [17]: 28.3% | viability, T/C [18]: 15.5% | viability, T/C [19]: 111% | viability, T/C [20]: 105% | viability, T/C [21]: 92.2% | viability, T/C [22]: 54.5% | viability, T/C [23]: 28.1% | viability, T/C [24]: 21.9% | viability, T/C [25]: 98.6% | viability, T/C [26]: 130% | viability, T/C [27]: 62% | viability, T/C [28]: 38.3% | viability, T/C [29]: 27% | viability, T/C [30]: 18.6% | viability, T/C [31]: 92% | viability, T/C [32]: 81% | viability, T/C [33]: 70.8% | viability, T/C [34]: 41.4% | viability, T/C [35]: 26.3% | viability, T/C [36]: 13.5%

Reference: PubChem BioAssay AID1963839 (Molecular Pharmacology Branch, DTP, NCI, 2024)
